Experimental data as given in patent publication US6084120A, “β-Alkoxyacrylates against malaria” (Hoffmann-La Roche Inc., priority 1997, dated 2000).
Values after ≈ are worked out from the molar mass of the structure shown. Like-named read-outs stand apart in the source and are kept apart here.

Assays:
[1] = system: human-pathogenic Plasmodium falciparum strain NF54; test: Growth inhibition of Plasmodium falciparum in vitro, strain NF54 (chloroquine-sensitive), [G-3H]-hypoxanthin incorporation; assay type: cell-based; settings: 72 h, read-out: in vitro strain NF 54 IC50 (growth inhibition) (converted)
Experimental: (§1) Test method for the determination of the activity against Plasmodium falciparum in vitro
(§2) The preparations are tested on intraerythrocytary stages of Plasmodium falciparum from asynchronous cultures according to the method of Desjardin et al. (Desjardins, R. E. et al: Quantitative assessment of antimalarial activity in vitro by a semiautomated microdilution technique. Antimicrob. Agents Chemother. 16, 710-718, (1979)).
(§3) The culture medium consists of RPMI 1640 with the addition of 25 mM HEPES, 25 mM NaHCO3, 100 μg/ml neomycin and 10% human serum (A^+). Human-A^+ erythrocytes are used as the Plasmodium falciparum host cells. The parasites are maintained at 37° C. in an atmosphere of 3% O2, 4% CO2, 93% N2 and 95% relative humidity.
(§4) In order to determine the activity, the preparations are dissolved in DMSO, pre-diluted in the culture medium to a suitable starting concentration and subsequently titrated-out on to microtitre plates in the 2nd stage over 6-7 steps. After the addition of the parasite culture (0.7% parasitemia in 2.5% erythrocyte suspension) the test plates are incubated under the conditions given above for 72 h. The parasite growth in the different preparation concentrations is determined using [G-^3 H]-hypoxanthin incorporation compared to untreated control cultures on the same test plates. The 50% growth inhibition (IC50) is calculated according to logit regression analysis from the resulting dosage-activity curve.
(§5) The preparations are tested on at least one chloroquine-resistant and one chloroquine-sensitive Plasmodium falciparum strain. Additional sensitive and resistant strains are included for further characterization.

[2] = system: human-pathogenic Plasmodium falciparum K1; test: Growth inhibition of Plasmodium falciparum in vitro, strain K1 (chloroquine-resistant), [G-3H]-hypoxanthin incorporation; assay type: cell-based; settings: 72 h
Experimental: as §1, §2, §3, §4, §5

[3] = system: Plasmodium berghei (strain ANKA); test: Activity against Plasmodium berghei in vivo, reduction of parasitemia in infected mice; settings: for inhibition in vivo at 10 mg/kg / inhibition in vivo at 100 mg/kg: Plasmodium berghei, 48 h after treatment; for inhibition in vivo at 10 mg/kg: single dose 10 mg/kg; for inhibition in vivo at 100 mg/kg / in vivo sc act. % (toxic): single dose 100 mg/kg
Experimental: Test method for the determination of the activity against Plasmodium berghei in vivo
The preparations are tested on mice infected with malaria pathogens (Plasmodium berghei). Male albino mice (IBM:MORO(SPF), FUELLINSDORF) weighing about 25 g are used as the test animals. They are kept in climatized rooms at 21-22° C. in groups of 5 animals per cage. They receive ad libitum a diet feed with a low PABA content (NAFAG FUTTER" No. 9009 PAB-45, PABA content 45 mg/kg) and drinking water. On the first day of the test (D0) the test animals are infected with Plasmodium berghei (strain ANKA). For this there is used heparinized blood of a donor mouse with about 30% parasitemia, which is diluted with physiological saline such that it contains 10^8 parasitized erythrocytes per ml. 0.2 ml of this suspension is injected intravenously (i.v.) into the mice to be treated and into the control mice. In untreated control animals the parasitemia normally reaches 30-40% on the third day after the infection (D+3) and the test animals die between days +5 and +7.
The substances to be tested are dissolved or suspended in distilled water or in a mixture of 7% Tween 80, 3% alcohol (96%) and water. Usually, 0.25 ml of this solution or suspension is administered once subcutaneously and perorally to groups of 5 test animals. Treatment is effected 24 hours after the infection. 10 control animals are treated in the same manner with solvent or suspension medium per test.
All substances are tested in a first test in a single dosage of 100 or 10 mg/kg. Only those substances which in this test (10 mg/kg) have shown a parasitaemia reduction of more than 90% are used for the titration. Suitable dilutions of the test substance can be used to obtain an accurate titration of the activity.
48 hours after the treatment (D+3) blood smears are prepared from all animals using blood from tail veins and are stained with giemsa. The average erythrocyte infection rate (parasitemiea in %) in the control groups as well as in the groups which have been treated with the test compounds is determined by counting under a microscope. The difference in the average values of the infection rates of control group (100%) and treated groups is calculated and expressed as a percentage reduction (GI%). The ED50 or ED90 is determined mathematically by means of the JMP programme (nonlinear fit). The ED50 (ED90) in mg/kg is that dose which after single administration reduces the average erythrocyte infection rate by 50% (90%) in comparison to the control group.

[4] = po, perorally, read-out: in vivo po act. % (percentage reduction of the parasitemia)
[5] = sc, subcutaneously, read-out: in vivo sc act. % (percentage reduction of the parasitemia)

Structure (SMILES)	IC50 [1]	IC50 [2]	inhibition in vivo at 10 mg/kg [3, 4]	inhibition in vivo at 100 mg/kg [3, 5]	inhibition in vivo at 100 mg/kg [3, 4]	in vivo sc act. % (toxic) ([3]; subcutaneously)
CO/C=C(/C(=O)OC)c1ccccc1/C=C/C=C/c1ccccc1Br [Example 203, Methyl (E)-2-[o-[(all-E)-4-(o-bromophenyl)-1,3-butadienyl]phenyl]-3-methoxyacrylate]	0.07 µg/mL (≈ 0.175 µM)	0.28 µg/mL (≈ 0.701 µM)	76%	90%		
CO/N=C(/C(=O)OC)c1ccccc1C#C/C=C/c1ccccc1C(F)(F)F [Example 209]	3.21 µg/mL (≈ 8.29 µM)	5.7 µg/mL (≈ 14.7 µM)				
CO/C=C(/C(=O)OC)c1csc2cccc(COC(=O)Cc3ccc(Cl)cc3Cl)c12 [Example 233]	29.5 µg/mL (≈ 63.4 µM)	67.3 µg/mL (≈ 145 µM)				
COC=C(C(=O)OC)c1ccccc1C=CC=Cc1ccc(C(F)(F)F)cc1C(F)(F)F [Example 199, (E)- or (Z)-2-[2-[4-(2,4-bis-trifluoromethyl-phenyl)-buta-1,3-dienyl]phenyl]-3-methoxy-acrylic acid methyl ester]	0.06 µg/mL (≈ 0.131 µM)	0.13 µg/mL (≈ 0.285 µM)	100%	100%		
CO/C=C(/C(=O)OC)c1ccccc1/C=C/c1cc(OC)c(OC)cc1[N+](=O)[O-] [Example 126]	1.2 µg/mL (≈ 3 µM)	3.3 µg/mL (≈ 8.26 µM)		76%	79%	
CO/C=C(/C(=O)OC)c1csc2c(C)cccc12 [Example 250]	184 µg/mL (≈ 703 µM)	550 µg/mL (≈ 2100 µM)				
CO/N=C(/C(=O)OC)c1ccccc1-c1ccc(-c2ccccc2C(F)(F)F)s1 [Example 217]	23.7 µg/mL (≈ 56.5 µM)	60.8 µg/mL (≈ 145 µM)				
CO/C=C(/C(=O)OC)c1ccccc1CSc1c(F)c(F)c(F)c(F)c1F [Example 11]	1.17 µg/mL (≈ 2.89 µM)	4.9 µg/mL (≈ 12.1 µM)			80%	tox
CO/C=C(/C(=O)OC)c1ccccc1/C=C/COC1CCCCO1 [Example 251, (E)-3-Methoxy-2-{(E)-2-[(R)- and (S)-3-(tetrahydro-pyran-2-yloxy}-propenyl]-phenyl}-acrylic acid methyl ester]	64.9 µg/mL (≈ 195 µM)	111 µg/mL (≈ 334 µM)		74%	40%	
CO/C=C(/C(=O)OC)c1csc2cccc(COC(=O)/C=C/c3cccc(C(F)(F)F)c3)c12 [Example 236]	44.2 µg/mL (≈ 92.8 µM)	175 µg/mL (≈ 367 µM)				
CO/C=C(/C(=O)OC)c1ccccc1CCCCc1ccccc1C(F)(F)F [Example 210]	0.85 µg/mL (≈ 2.17 µM)	1.35 µg/mL (≈ 3.44 µM)		99%	82%	
CO/C=C(/C(=O)OC)c1csc2cccc(CN(C)[C@@H](C)c3ccccc3)c12 [Example 222]	22.6 µg/mL (≈ 57.1 µM)	64.3 µg/mL (≈ 163 µM)				
CO/C=C(/C(=O)OC)c1ccccc1/C=C/c1ccc(OC)c(OC)c1Cl [Example 136]	1.04 µg/mL (≈ 2.67 µM)	2.9 µg/mL (≈ 7.46 µM)			40%	tox
CO/N=C(/C(=O)OC)c1ccccc1CO/N=C(\C)c1cc(C(F)(F)F)cc(C(F)(F)F)c1 [Example 111]	1.6 µg/mL (≈ 3.36 µM)	4.3 µg/mL (≈ 9.03 µM)				
CO/C=C(/C(=O)OC)c1ccccc1/C=C/CSc1ccccc1C(F)(F)F [Example 120]	1.75 µg/mL (≈ 4.28 µM)	2.51 µg/mL (≈ 6.15 µM)		91%	46%	
CO/N=C(/C(=O)OC)c1ccccc1C#CC#Cc1ccccc1C(F)(F)F [Example 207]	10.8 µg/mL (≈ 28 µM)	25.8 µg/mL (≈ 67 µM)				
CO/C=C(/C(=O)OC)c1csc2cccc(/C=C/c3ccccc3)c12 [Example 241]	1.4 µg/mL (≈ 3.99 µM)	7.4 µg/mL (≈ 21.1 µM)				
CO/C=C(/C(=O)OC)c1ccccc1COc1cnc2cc(Br)cc(C)c2n1 [Example 28]	17.7 µg/mL (≈ 39.9 µM)	19.1 µg/mL (≈ 43.1 µM)				
CO/C=C(/C(=O)OC)c1ccccc1/C=C/C=C/c1ccccc1C(F)(F)F [Example 185, Methyl (E)-3-methoxy-2-[o-[(all-E)-4-(alpha,alpha,alpha-trifluoro-tolyl)-1,3-butadienyl]-phenl]acrylate]	0.06 µg/mL (≈ 0.154 µM)	0.15 µg/mL (≈ 0.386 µM)	99%	100%		
CON=C(C(=O)OC)c1ccccc1/C=C/C=C/c1ccccc1C(F)(F)F [Example 206, (Z)- or (E)-Methoxyimino-[2-[(1E,2E)-4-(2-trifluoromethylphenyl)-buta-1,3-dienyl]-phenyl]-acetic acid methyl ester]	0.4 µg/mL (≈ 1.03 µM)	1.4 µg/mL (≈ 3.6 µM)		44%	46%	
CO/C=C(/C(=O)OC)c1ccccc1CO/N=C(\C)c1cc(C(F)(F)F)cc(C(F)(F)F)c1 [Example 105]	0.21 µg/mL (≈ 0.442 µM)	1.01 µg/mL (≈ 2.12 µM)				
CO/C=C(/C(=O)OC)c1csc2cccc(CO/N=C(\C)c3cccc(C(F)(F)F)c3)c12 [Example 238]	17.5 µg/mL (≈ 37.8 µM)	40.9 µg/mL (≈ 88.2 µM)				
CO/C=C(/C(=O)OC)c1ccccc1CCCCc1ccc(C(F)(F)F)cc1C(F)(F)F [Example 211]	0.33 µg/mL (≈ 0.717 µM)	1.34 µg/mL (≈ 2.91 µM)	59%	92%		
CO/N=C(/C(=O)OC)c1ccccc1CO/N=C(\C)c1cccc(C(F)(F)F)c1 [Example 110]	20 µg/mL (≈ 49 µM)	65.8 µg/mL (≈ 161 µM)				
CO/C=C(/C(=O)OC)c1csc2cccc(/C=C/c3ccsc3)c12 [Example 243]	6.7 µg/mL (≈ 18.8 µM)	22.6 µg/mL (≈ 63.4 µM)				
